ChEMBL document CHEMBL5543087 (Eur J Med Chem, 2024)
Structures can show the parent of a compound that is named as a salt. Numbered stars: 1 amine (or outer) side, 2 acyl side, 3 side chain; on linkers, the order of the positions; unused ones are H or OH. Square brackets hold non-standard residues; d marks the D form. Peptide text beside a SMILES is read from it. * marks the point of attachment. X2 = C[C@@](N[*:1])(C(=O)[*:2])C(F)(F)F; X1 = C[C@](N[*:1])(C(=O)[*:2])C(F)(F)F; Sta = CC(C)C[C@H](N)[C@@H](O)CC(=O)O; Cbz = O=C(OCc1ccccc1)*; Tfa = O=C(C(F)(F)F)*

Assays:
[1] = Inhibition of porcine gastric mucosa Pepsin using MCA labeled GKPILFFRLK(DNP)-D-R-NH2 as substrate preincubated for 10 mins followed by substrate addition by FRET assay; design: species or system Sus scrofa
[2] = Lipophilicity, logP of compound in n-Octanol/water; type: physicochemical
[3] = Chromatographic hydrophobicity index of compound incubated for 20 mins by reversed-phase HPLC analysis; type: ADME
SK-OV-3 [4] = assay: Cytotoxicity against human SK-OV-3 cells assessed as increase in LDH activity incubated for 24 hrs; type: toxicity, cell-based; settings: sk-ov-3, 24 h
BJ [5] = assay: Cytotoxicity against human BJ cells assessed as increase in LDH activity incubated for 24 hrs; type: toxicity, cell-based
SK-OV-3 [6] = assay: Cytotoxicity against human SK-OV-3 cells assessed as increase in LDH activity at 40 uM incubated upto 96 hrs; type: toxicity, cell-based; settings: sk-ov-3, 96 h
SK-OV-3 [7] = assay: Cytotoxicity against human SK-OV-3 cells assessed as cell retraction at 40 uM incubated for 24 hrs by DAPI fluorescent staining analysis; type: toxicity, cell-based; settings: sk-ov-3, 24 h
BJ [8] = assay: Cytotoxicity against human BJ cells assessed as increase in LDH activity at IC50 incubated upto 96 hrs; type: toxicity, cell-based
SK-OV-3 [9] = assay: Cytotoxicity against human SK-OV-3 cells assessed as increase in LDH activity at IC50 incubated upto 96 hrs; type: toxicity, cell-based; settings: sk-ov-3, 96 h
SK-OV-3 [10] = assay: Cytotoxicity against human SK-OV-3 cells assessed as change in fibronectin matrix organization at 40 uM incubated for 24 hrs by phalloidin fluorescent staining analysis; type: toxicity, cell-based; settings: sk-ov-3, 24 h
SK-OV-3 [11] = assay: Cytotoxicity against human SK-OV-3 cells assessed as change in fibronectin matrix organization at IC50 incubated for 24 hrs by phalloidin fluorescent staining analysis; type: toxicity, cell-based; settings: sk-ov-3, 24 h
SK-OV-3 [12] = assay: Cytotoxicity against human SK-OV-3 cells assessed as change in cell cytoskeleton at IC50 incubated for 24 hrs by phalloidin fluorescent staining analysis; type: toxicity, cell-based; settings: sk-ov-3, 24 h
SK-OV-3 [13] = assay: Cytotoxicity against human SK-OV-3 cells assessed as change in nucleus morphology at IC50 incubated for 24 hrs by DAPI fluorescent staining analysis; type: toxicity, cell-based; settings: sk-ov-3, 24 h
SK-OV-3 [14] = assay: Cytotoxicity against human SK-OV-3 cells assessed as diffused F-actin network at IC50 incubated for 24 hrs by phalloidin fluorescent staining analysis; type: toxicity, cell-based; settings: sk-ov-3, 24 h
SK-OV-3 [15] = assay: Cytotoxicity against human SK-OV-3 cells assessed as change in cell morphology at IC50 incubated for 24 hrs by DAPI fluorescent staining analysis; type: toxicity, cell-based; settings: sk-ov-3, 24 h
SK-OV-3 [16] = assay: Cytotoxicity against human SK-OV-3 cells assessed as change in cell cytoskeleton at 40 uM incubated for 24 hrs by phalloidin fluorescent staining analysis; type: toxicity, cell-based; settings: sk-ov-3, 24 h
SK-OV-3 [17] = assay: Cytotoxicity against human SK-OV-3 cells assessed as change in cell cytoskeleton at 28 uM incubated for 24 hrs by phalloidin fluorescent staining analysis; type: toxicity, cell-based; settings: sk-ov-3, 24 h
SK-OV-3 [18] = assay: Cytotoxicity against human SK-OV-3 cells assessed as cell retraction at 28 uM incubated for 24 hrs by DAPI fluorescent staining analysis; type: toxicity, cell-based; settings: sk-ov-3, 24 h
SK-OV-3 [19] = assay: Cytotoxicity against human SK-OV-3 cells assessed as change in fibronectin matrix organization at 28 uM incubated for 24 hrs by phalloidin fluorescent staining analysis; type: toxicity, cell-based; settings: sk-ov-3, 24 h
SK-OV-3 [20] = assay: Cytotoxicity against human SK-OV-3 cells assessed as increase in LDH activity at 28 uM incubated upto 96 hrs; type: toxicity, cell-based; settings: sk-ov-3, 96 h
Cathepsin D = Cathepsin D (Homo sapiens, UniProt P07339); assay: Inhibition of human Cathepsin D using MCA labeled GKPILFFRLK(DNP)-D-R-NH2 as substrate preincubated for 10 mins followed by substrate addition by FRET assay
Cathepsin D, sequence (P07339 65-162 limits assumed): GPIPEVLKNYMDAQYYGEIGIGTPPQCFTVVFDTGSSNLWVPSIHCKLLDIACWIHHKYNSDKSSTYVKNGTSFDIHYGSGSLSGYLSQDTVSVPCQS
Cathepsin D, sequence (P07339 169-412 limits assumed): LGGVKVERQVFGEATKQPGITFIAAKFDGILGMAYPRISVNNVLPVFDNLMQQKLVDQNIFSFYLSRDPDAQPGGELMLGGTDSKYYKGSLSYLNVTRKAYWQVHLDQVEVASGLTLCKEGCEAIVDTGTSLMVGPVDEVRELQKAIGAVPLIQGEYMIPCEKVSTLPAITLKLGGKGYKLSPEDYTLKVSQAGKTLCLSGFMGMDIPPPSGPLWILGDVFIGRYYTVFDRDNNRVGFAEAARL

| Compound | IC50 [1] [nM] | logP [2] | CHI [3] | Activity (SK-OV-3 [4]) | Activity (BJ [5]) | other results |
| --- | --- | --- | --- | --- | --- | --- |
| CC(C)C[C@H](NC(=O)[C@H](C)NC(=O)C[C@H](O)[C@H](CC(C)C)NC(=O)[C@@H](NC(=O)[C@@](C)(NC(=O)OCc1ccccc1)C(F)(F)F)C(C)C)[C@@H](O)CC(=O)O (Cbz-[X2]V[Sta]A[Sta]-OH) | 375 | 3.97 | 49.19 | Non-Toxic | Non-Toxic | – |
| CC(C)CC(=O)N[C@@H](CCSC(F)(F)F)C(=O)N[C@H](C(=O)N[C@@H](CC(C)C)[C@@H](O)CC(=O)N[C@@H](C)C(=O)N[C@@H](CC(C)C)[C@@H](O)CC(=O)O)C(C)C | 775 | 3.33 | 46.95 | Non-Toxic | Non-Toxic | – |
| CC(C)CC(=O)N[C@@H](C(=O)N[C@H](C(=O)N[C@@H](CC(C)C)[C@@H](O)CC(=O)N[C@@H](C)C(=O)N[C@@H](CC(C)C)[C@@H](O)CC(=O)O)C(C)C)C(C)C | 21 | – | – | Non-Toxic | Non-Toxic | – |
| CC(C)CC(=O)N[C@H](CCSC(F)(F)F)C(=O)N[C@H](C(=O)N[C@@H](CC(C)C)[C@@H](O)CC(=O)N[C@@H](C)C(=O)N[C@@H](CC(C)C)[C@@H](O)CC(=O)O)C(C)C | 31 | 3.3 | 45.85 | Non-Toxic | Non-Toxic | Activity (SK-OV-3 [6]): Toxic; Activity (SK-OV-3 [7]): Toxic; Activity (BJ [8]): Non-Toxic; Activity (SK-OV-3 [9]): Non-Toxic; Activity (SK-OV-3 [10]): Toxic; Activity (SK-OV-3 [11]): Toxic; Activity (SK-OV-3 [12]): Toxic; Activity (SK-OV-3 [13]): Toxic; Activity (SK-OV-3 [14]): Toxic; Activity (SK-OV-3 [15]): Toxic; Activity (SK-OV-3 [16]): Toxic |
| CC(C)CC(=O)N[C@H](C(=O)N[C@H](C(=O)N[C@@H](CC(C)C)[C@@H](O)CC(=O)N[C@@H](C)C(=O)N[C@@H](CC(C)C)[C@@H](O)CC(=O)O)C(C)C)C(C)C [PEPSTATIN] | 50 | 2.37 | 39.55 | – | – | – |
| CC(C)C[C@H](NC(=O)[C@H](C)NC(=O)C[C@H](O)[C@H](CC(C)C)NC(=O)[C@@H](NC(=O)[C@](C)(NC(=O)OCc1ccccc1)C(F)(F)F)C(C)C)[C@@H](O)CC(=O)O (Cbz-[X1]V[Sta]A[Sta]-OH) | 48 | 3.36 | 47.24 | Non-Toxic | Non-Toxic | Activity (SK-OV-3 [17]): Toxic; Activity (SK-OV-3 [18]): Toxic; Activity (BJ [8]): Non-Toxic; Activity (SK-OV-3 [9]): Non-Toxic; Activity (SK-OV-3 [11]): Toxic; Activity (SK-OV-3 [12]): Toxic; Activity (SK-OV-3 [13]): Toxic; Activity (SK-OV-3 [14]): Toxic; Activity (SK-OV-3 [19]): Toxic; Activity (SK-OV-3 [20]): Toxic; Activity (SK-OV-3 [15]): Toxic |
| CC(C)CC(=O)N[C@@H](C(=O)N[C@H](C(=O)N[C@@H](CCSC(F)(F)F)[C@@H](O)CC(=O)N[C@@H](C)C(=O)N[C@@H](CC(C)C)[C@@H](O)CC(=O)O)C(C)C)C(C)C | 193 | – | – | – | – | – |
| CC(C)C[C@H](NC(=O)[C@H](C)NC(=O)C[C@H](O)[C@H](CC(C)C)NC(=O)[C@@H](NC(=O)[C@@H](NC(=O)C(F)(F)F)C(C)C)C(C)C)[C@@H](O)CC(=O)O (Tfa-VV[Sta]A[Sta]-OH) | > 4000 | 2.44 | 43.68 | – | – | IC50 (Cathepsin D): > 2000 nM |
